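Results reflect a 48-hour exposure of cells in 96-well plates to compound at five concentrations. GI50 is the concentration that inhibits growth by half.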 The source made the active and inactive calls. No stated cut-off is given here; in the data, active = GI50 up to about 1.1 µM and inactive = higher.
Tests used:
Assay in all cases: growth of human tumour cells (NCI), 48 h
786-0 = test system: 786-0
A549 = test system: A549
CAKI-1 = test system: CAKI-1
EKVX = test system: EKVX
HL-60 = test system: HL-60
HOP-62 = test system: HOP-62
OVCAR-3 = test system: OVCAR-3
OVCAR-4 = test system: OVCAR-4
RPMI-8226 = test system: RPMI-8226
SN12C = test system: SN12C
SNB-19 = test system: SNB-19
UO-31 = test system: UO-31
NCI-H226 = test system: NCI-H226

Row | Structure (SMILES) | GI50 (786-0) | GI50 (A549) | GI50 (CAKI-1) | GI50 (EKVX) | GI50 (HL-60) | GI50 (HOP-62) | GI50 (OVCAR-3) | GI50 (OVCAR-4) | GI50 (RPMI-8226) | GI50 (SN12C) | GI50 (SNB-19) | GI50 (UO-31) | GI50 (NCI-H226)
1 | O=S1(=O)[C@H](c2ccccc2)c2c(-c3ccccc3)sc(-c3ccccc3)c2[C@@H]1c1ccccc1 | 38.9 µM (inactive) | > 100 µM (inactive) | > 100 µM (inactive) | > 100 µM (inactive) | > 100 µM (inactive) | > 100 µM (inactive) | > 100 µM (inactive) | 48.1 µM (inactive) | > 100 µM (inactive) | > 100 µM (inactive) | > 100 µM (inactive) | > 100 µM (inactive) | –
2 | Cc1ccc(NC(=O)C(=O)C(C(=O)c2ccc3ccccc3c2)C2OC(=O)c3ccccc32)c(C)c1 (configuration not stated) | 6.93 µM (inactive) | 18 µM (inactive) | 6.68 µM (inactive) | 19.1 µM (inactive) | – | 6.12 µM (inactive) | 9.38 µM (inactive) | 6.76 µM (inactive) | 5.87 µM (inactive) | 15.5 µM (inactive) | 4.37 µM (inactive) | 13.1 µM (inactive) | 2.63 µM (inactive)
3 | O=Cc1c(O)c(C(=O)Nc2ccc3[nH]c(=O)[nH]c3c2)cc2ccccc12 | > 100 µM (inactive) | > 100 µM (inactive) | > 100 µM (inactive) | > 100 µM (inactive) | > 100 µM (inactive) | > 100 µM (inactive) | > 100 µM (inactive) | > 100 µM (inactive) | > 100 µM (inactive) | > 100 µM (inactive) | > 100 µM (inactive) | > 100 µM (inactive) | > 100 µM (inactive)
4 | CCOC(=O)C(=O)Nc1c(C)cccc1C(C)(C)C | > 100 µM (inactive) | – | > 100 µM (inactive) | > 100 µM (inactive) | – | > 100 µM (inactive) | > 100 µM (inactive) | 73.3 µM (inactive) | > 100 µM (inactive) | > 100 µM (inactive) | > 100 µM (inactive) | > 100 µM (inactive) | > 100 µM (inactive)
5 | COc1cc(C(=O)C/C(CCCC(=O)Nc2ccccc2[N+](=O)[O-])=N/NC(=O)c2cc3ccccc3cc2O)ccc1O | 32.4 µM (inactive) | 54.5 µM (inactive) | > 68.9 µM (inactive) | 16.5 µM (inactive) | 0.556 µM (active) | 94.8 µM (inactive) | 16.1 µM (inactive) | 38.3 µM (inactive) | > 46.9 µM (inactive) | 44 µM (inactive) | > 80.2 µM (inactive) | 13.9 µM (inactive) | > 81.7 µM (inactive)
6 | O=C(c1ccc(Cl)cc1)c1ccc(OCCSCCCCCCCCCCSCCOc2ccc(C(=O)c3ccc(Cl)cc3)cc2)cc1 | > 100 µM (inactive) | > 100 µM (inactive) | > 100 µM (inactive) | > 100 µM (inactive) | > 100 µM (inactive) | > 100 µM (inactive) | > 100 µM (inactive) | – | > 100 µM (inactive) | > 100 µM (inactive) | > 100 µM (inactive) | > 100 µM (inactive) | > 100 µM (inactive)
7 | CCOC(=O)c1cccc(=O)c(C(=O)OCC)c1 | 63.2 µM (inactive) | 46.9 µM (inactive) | 77.3 µM (inactive) | > 100 µM (inactive) | 26.6 µM (inactive) | 33.3 µM (inactive) | 31.3 µM (inactive) | 48.1 µM (inactive) | 29.3 µM (inactive) | – | – | 29.4 µM (inactive) | 19.1 µM (inactive)
8 | COc1cc(C(=O)C/C(CCC(=O)Nc2ccc(Cl)cc2C)=N/NC(=O)C(N)=O)ccc1O | > 100 µM (inactive) | > 100 µM (inactive) | > 100 µM (inactive) | > 100 µM (inactive) | > 100 µM (inactive) | > 100 µM (inactive) | > 100 µM (inactive) | > 100 µM (inactive) | > 100 µM (inactive) | > 100 µM (inactive) | > 100 µM (inactive) | 43.1 µM (inactive) | > 100 µM (inactive)
